Source: patent US5925667A, “Pyrrolidine derivative, anti-ulcer drug, and antibacterial drug” (Shiseido Co., Ltd., priority 1997, dated 1999)

Assays:
[1] = system: stress ulcer; experiment: WIS: Restraint and Water Immersion Stress-Induced Ulcer Inhibition Test; format: in vivo, male Crj:SD or Slc:SD rats; settings: rat; for inhibition in vivo at 100 mg/kg: 100 mg/kg oral, 7 h water immersion stress, read-out: ulcer formation inhibitory rate (WIS)
Method: WIS: Restraint and Water Immersion Stress-Induced Ulcer Inhibition Test
The degree of inhibition of the stress ulcer formation is tested.
Male Crj:SD or Slc:SD rats (6 to 7-week-old) were fasted overnight, but allowed free access to water. Each group has 5 to 8 of these rats. The sample compound was dissolved or suspended in an aqueous solution of 0.3% sodium carboxymethylcellulose or 0.05% Tween 80 and then was orally administered (100 mg/10 ml/kg. To a control group, the vehicle was administered. 10 minutes later, the rats were placed in a stress cage and immersed to the level of xipfoid process in a water bath (21° C.) for 7 hours. At the end of the stress, the rats were sacrificed by inhalation of ether or carbon dioxide. Then, the stomach of each was removed, inflated by injecting 10 ml of 5% formalin neutral buffer solution, and immersed in 1% formalin neutral buffer solution for 30 minutes or more to be fixed. The stomach was incised along the greater curvature and then the length of each erosion in the glandular portion was determined under dissecting microscope. The sum of the length of erosions per stomach was defined as ulcer index (UI).
The effect obtained when 100 mg/kg of the sample compound had been administered was expressed as ulcer formation inhibitory rate (%) as follows:
ulcer formation inhibitory rate (%)=(1-(UI in sample group/UI in control group))×100

[2] = MTT: Cell Damaging and Protecting Effect Test; format: cell-based, male Japanese White rabbit; settings: rabbit, gastric mucosa cells, final concentration 10^-4 M, smaller value is better, read-out: cell damaging rate (MTT)
Description: MTT: Cell Damaging and Protecting Effect Test
It is confirmed that there is no toxicity in cell level. Those having a toxicity in cell level are inappropriate as an anti-ulcer drug.
A male Japanese White rabbit (2.5 to 3 kg) was anesthetized to death by Nembutal™ and, immediately thereafter, its stomach was removed. The greater curvature of the stomach was incised so as to remove the stomach contents therefrom. After the mucosal surface was washed with HBSS (Hanks' Balanced Salt Solution), the stomach in ice-cooled HBSS was transferred to a laboratory. Then, after the pyloric antrum was removed, the gastric corpus mucosa was separated by a spatula and then minced into 2 to 3 mm^3 pieces in BME (Basal Medium Eagle). Thereafer, these pieces were shaken at 120 to 130 cycles/minute for 15 minutes at 37° C. in BME 60 ml containing 280 U/ml of dispase and 30 to 50 U/ml of collagenase. Here, the concentration of collagenase was appropriately changed for each lot in view of the state of cells. The pieces were washed twice with EBSS (Earle's Balanced Salt Solution) containing 1 mM of EDTA and then shaken in MEM (Minimum Essential Medium) containing 1 mM of EDTA at 37° C. for 5 minutes. Subsequently, they were shaken in the dispase and collagenase having the same concentrations as those mentioned above for 15 minutes so as to remove the supernatant and then further shaken at 37° C. for 50 to 60 minutes at 120 to 130 cycles/minute. Then, after being washed twice with HBSS, Ham F12 containing 2% of Ultrocer G™ was used to attain the concentration of 1×10^6 cells/ml. Thus formed suspension was dispensed in each well of a 96-well plate by 200 μl. The plate was incubated in the atmosphere composed of 5% CO2 and 95% air at 37° C. for three days so as to attain a confluent state and then subjected to MTT assay.
The sample compound was dissolved in DMSO so as to attain a concentration of 10^-2 M and then diluted with HBSS containing 2% of Ultrocer G™ so as to attain a final concentration of 10^-4 M. To each group, which 8 wells were used for, 10 μl of MTT reagent was added immediately after 100 μl of the medium in each well was exchanged for same volume of the resulting solution of the sample compound. After being incubated in an atmosphere composed of 5% CO2 and 95% air at 37° C. for 4 hours, thus formed solution was centrifuged and then its supernatant was discarded. Subsequently, 100 μl of 100% ethanol was added to the residue so as to dissolve MTT formazan. Then, the absorbance (OD: 570 to 630) was measured by a microplate reader. This method utilizes a phenomenon in which MTT is changed to MTT formazan only by mitochondria of living cells so as to change color.
The cell damaging or cell protecting effect of the sample compound at the final concentration of 10^-4 M was expressed as cell damaging rate (%) as follows:
cell damaging rate (%)=(1-(absorbance in sample group/absorbance in control group))×100
Accordingly, the smaller value is better in the cell damaging rate.

[3] = system: isolated gastric fundic gland; experiment: CAP: Acid Secretion Inhibition Test In Vitro ([14C]-aminopyrine uptake test); format: cell-based, male Japanese White rabbit; settings: Oryctolagus cuniculus; final concentration 10^-5 M, histamine 10^-5 M; read-out: acid secretion inhibitory rate (CAP)
Method: CAP: Acid Secretion Inhibition Test In Vitro
The acid secretion inhibitory activity in a cell level is studied. It can also be used for studying the mechanism of the effect.
ii-a) Preparation of isolated gastric fundus gland suspension
First, an isolated gastric fundic gland sample was prepared. Namely, a male Japanese White rabbit (2.5 to 3 kg) was anesthetized to death with Nembutal™ and then the abdomen was incised. Immediately thereafter, the stomach was removed and, after its pyloric and cardiac antrum were severed, incised along its greater curvature into two sheets. The gastric contents adhering to the mucosal surface was washed out with ice-cooled PBS (-) and then carefully washed therein. The gastric wall was spread on a cork board with its mucosal surface facing up and the feed and mucus thereon were completely removed with sterile gauze. The mucosa was separated therefrom by a spatula and then collected in ice-cooled PBS (-). After being washed twice with PBS (-), the mucosa was minced into 2-3 mm^3 pieces by scissors. These pieces were further washed twice with a nutrient solution. The nutrient solution comprises 132.4 mM of NaCl, 5.4 mM of KCl, 5 mM of Na2 HPO4.12H2 O, 1 mM of NaH2 PO4.2H2,
1.2 mM of MgSO4, 1 mM of CaCl2, 25 mM of HEPES, 2 mg/ml of glucose, and 1 mg/ml of BSA.
Into 70 ml of the nutrient solution containing 1 mg/ml of collagenase, minced mucosal pieces were dispersed and intensely stirred in a conical flask with a stirrer at 37° C. for 40 to 60 minutes. During this period, 100% O2 was sprayed on the nutrient solution surface and the pH was appropriately measured such that it was immediately adjusted to pH 7.4, when the value was therebelow, with a base. The nutrient solution was added to the reaction solution so as to attain the total amount of about 200 ml. After being filtered through a mesh, the suspension was divisionally introduced into 50 ml centrifuge tubes and left for 15 minutes such that gastric fundic gland was deposited. The supernatant was repeatedly removed by an aspirator, dispersed in the nutrient solution, and then left such that the gastric fundic gland was washed three times. At this time, without using a pipette, the suspension was alternately introduced into two centrifuge tubes so as to effect dispersion. The number of cells was counted under microscope and adjusted to 1.6×10^6 cells/ml.
ii-b) [^14 C]-aminopyrine uptake test.
Then, [^14 C]-aminopyrine uptake test was performed. After an Eppendorf tube was weighed, 10 μl (final concentration: 10^-5 M) of histamine dissolved in the above-mentioned nutrient solution, 10 μl (final concentration: 10^-5 M) of the test compound dissolved in DMSO, and 10 μl (final concentration: 0.05 μCi/ml) of [^14 C]-aminopyrine diluted with the nutrient solution were introduced therein and then 970 μl of the isolated gastric fundic gland suspension prepared above was added thereto. Subsequently, this mixture was shaken at 37° C. for 40 minutes at 125 cycles/minute. After being centrifuged for 30 seconds, 200 μl of its supernatant was collected into a mini-vial, while the rest was removed by an aspirator. The gland pellet was completely dried as the tube with its lid being opened was kept for one night in a drying oven at 80° C. and then the lid was closed and the weight was determined at room temperature. Then 100 μl of 1N KOH was added thereto and the tube with its lid being closed was treated at 60° C. for 1 to 2 hours so as to dissolve the pellet. Then, the contents thereof were transferred to a mini-vial. Into the mini-vial containing the supernatant or gland pellet, 4 ml of Atomlite™ was added and then the radioactivity was measured by a liquid scintillation counter. Here, after the radioactivity of the gland pellet was corrected by using a sample in which 20 mM of NaSCN was added so as to cancel the hydrogen ion concentration gradient, the integration ratio of aminopyrine specifically trapped by the gland pellet was calculated. […]

Row | SMILES | inhibition in vivo at 100 mg/kg [1] [%] | cytotoxicity at 4 h, 100 µM [2] [%] | anti-ulcer effect (in words) ([1]; in vivo) | inhibition at 10 µM [3] [%]
1 | CCN1CCCC1CNC(=O)c1cc(F)ccc1OC/C=C(\C)CCC=C(C)C (centres unmarked) [Example 20, 1-ethyl-2-(3-fluoro-6-geranyloxybenzoylaminomethyl)pyrrolidine] | 89 | 23 |  | 
2 | CCN1CCCC1CNC(=O)c1ccccc1SC/C=C(\C)CCC=C(C)C (centres unmarked) [Example 14, 1-ethyl-2-(2-geranylthiobenzoylaminomethyl)pyrrolidine] | 81 | 27 | the effect has been maintained | 98.1
3 | CCN1CCCC1CNC(=O)c1cc(OCC=C(C)C)c(OCC=C(C)C)c(OCC=C(C)C)c1 (centres unmarked) [Example 13, 1-ethyl-2-(3,4,5-triprenyloxybenzoylaminomethyl)pyrrolidine] | 57 |  |  | 
4 | CCN1CCCC1CNC(=O)c1ccc(OCC=C(C)C)nc1 (centres unmarked) [Example 26, 1-ethyl-2-(6-prenyloxynicotinoylaminomethyl)pyrrolidine] | 48 | -8 |  | 
5 | CCN1CCCC1CNC(=O)c1ccc(OC/C=C(\C)CCC=C(C)C)c(OC/C=C(\C)CCC=C(C)C)c1 (centres unmarked) [Example 11, 1-ethyl-2-(3,4-digeranyloxybenzoylaminomethyl)pyrrolidine] | 75 |  |  | 
6 | CCN1CCCC1CNC(=O)c1cc(OC)c(OC/C=C(\C)CCC=C(C)C)c(OC)c1 (centres unmarked) [Example 21, 1-ethyl-2-(3,5-dimethoxy-4-geranyloxybenzoylaminomethyl)pyrrolidine] | 76 |  |  | 
7 | CCN1CCCC1CNC(=O)c1cccnc1OCC=C(C)C (centres unmarked) [Example 25, 1-ethyl-2-(2-prenyloxynicotinoylaminomethyl)pyrrolidine] | 90 | -15 |  | 
8 | CCN1CCCC1CNC(=O)c1ccc(OC)cc1OC/C=C(\C)CCC=C(C)C (centres unmarked) [Example 18, 1-ethyl-2-(2-geranyloxy-4-methoxybenzoylaminomethyl)pyrrolidine] | 76 | 4 |  | 
9 | CCN1CCCC1CNC(=O)c1cc(OC)c(OC)c(OC/C=C(\C)CCC=C(C)C)c1 (centres unmarked) [Example 22, 1-ethyl-2-(3,4-dimethoxy-5-geranyloxybenzoylaminomethyl)pyrrolidine] | 80 |  |  | 
10 | CCN1CCCC1CNC(=O)c1cc(OC)ccc1OC/C=C(\C)CCC=C(C)C (centres unmarked) [Example 19, 1-ethyl-2-(2-geranyloxy-5-methoxybenzoylaminomethyl)pyrrolidine] | 89 | 21 |  | 
11 | CCN1CCCC1CNC(=O)c1ccc(OC/C=C(\C)CCC=C(C)C)nc1 (centres unmarked) [Example 27, 1-ethyl-2-(6-gearnyloxynicotinoylaminomethyl)pyrrolidine] | 88 |  |  | 81
12 | CCN1CCCC1CNC(=O)c1ccc(OC/C=C(\C)CCC=C(C)C)cc1OC/C=C(\C)CCC=C(C)C (centres unmarked) [Example 9, 1-ethyl-2-(2,4-digeranyloxybenzoylaminomethyl)pyrrolidine] | 66 |  |  | 
13 | CCN1CCCC1CNC(=O)c1cc(OC/C=C(\C)CCC=C(C)C)cc(OC/C=C(\C)CCC=C(C)C)c1 (centres unmarked) [Example 12, 1-ethyl-2-(3,5-digeranyloxybenzoylaminomethyl)pyrrolidine] | 82 | 29 |  | 100
14 | CCN1CCCC1CNC(=O)c1cc(OC)c(OCC=C(C)C)c(OC)c1 (centres unmarked) [Example 24, 1-ethyl-2-(3,5-dimethoxy-4-prenyloxybenzoylaminomethyl)pyrrolidine] | 79 | 12 |  | 
15 | CCN1CCCC1CNC(=O)c1ccccc1OC/C=C(\C)CCC=C(C)C (centres unmarked) [Example 2, 1-ethyl-2-(2-geranyloxybenzoylaminomethyl)pyrrolidine] | 85 | 19 |  | 99.7
16 | CCN1CCCC1CNC(=O)c1cccc(OC)c1OC/C=C(\C)CCC=C(C)C (centres unmarked) [Example 17, 1-ethyl-2-(2-geranyloxy-3-methoxybenzoylaminomethyl)pyrrolidine] | 82 | 22 |  | 100
17 | CCN1CCCC1CNC(=O)c1ccc(OC)c(OC/C=C(\C)CCC=C(C)C)c1 (centres unmarked) [Example 15, 1-ethyl-2-(3-geranyloxy-4-methoxybenzoylaminomethyl)pyrrolidine] | 91 | 2 |  | 
18 | CCN1CCCC1CNC(=O)c1ccc(OC/C=C(\C)CCC=C(C)C)cc1 (centres unmarked) [Example 1, 1-ethyl-2-(4-geranyloxybenzoylaminomethyl)pyrrolidine] | 80 |  |  | 
